Data: PMC11666850, “Development and evaluation of deuterated [^18F]JHU94620 isotopologues for the non-invasive assessment of the cannabinoid type 2 receptor in brain” (EJNMMI Radiopharmacy and Chemistry, 2024)
Where “and” joins values, the source holds several entries; their conditions need not be identical. Equal values may be shown once. Read-outs that look alike come from different tables or passages of the source.

How the values were obtained:
CB2R [1] = target: T1, CB2R (Rattus norvegicus, UniProt Q9QZN9); experiment: Quantitative autoradiography, rat spleen cryosections; format: binding
T1 construct: from tissue; host or cells: rat spleen: cryosections in vitro, and spleen of living Wistar rats in PET
T1 sequence (Q9QZN9 1-360): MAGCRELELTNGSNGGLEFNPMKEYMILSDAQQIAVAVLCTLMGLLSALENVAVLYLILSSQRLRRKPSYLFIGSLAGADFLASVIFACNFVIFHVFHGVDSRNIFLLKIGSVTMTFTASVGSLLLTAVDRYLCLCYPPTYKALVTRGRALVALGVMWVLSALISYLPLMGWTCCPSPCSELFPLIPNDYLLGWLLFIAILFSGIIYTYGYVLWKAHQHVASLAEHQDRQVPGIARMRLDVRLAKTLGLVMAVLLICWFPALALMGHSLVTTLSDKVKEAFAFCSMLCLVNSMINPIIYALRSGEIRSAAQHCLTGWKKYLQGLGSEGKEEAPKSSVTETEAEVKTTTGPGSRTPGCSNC
Method: (§1) For quantitative autoradiography in different species, 10 µm cryosections from mouse, rat and piglet spleen were thawed, dried, and pre-incubated with incubation buffer for 10 min, dried under an airstream. Subsequently, the incubation buffer containing [^18F]JHU94620-d8 (59–137 GBq µmol^−1, 1.7–3.6 nM) was added alone or together with indicated concentrations of the reference compound. Additionally, to assess the non-specific binding of [^18F]JHU94620-d8 to cryosections GW405833 was added instead of the reference compound. After 90 min, cryosections were washed two times for 2 min with ice-cold 50 mM Tris HCl, pH7.4 and 10 s in ddH2O and subsequently dried under an airstream. For the calculation of the radioactivity concentration, 5 µl of five serial 1:2 dilutions of the incubation buffer with [^18F]JHU94620-d8 were air-dried on a microscopic slide. For binding studies in rat spleen cryosections by autoradiography with HLM-derived radiometabolites of [^18F]JHU94620-d8 obtained from the radiometabolite assay, the samples were added to the incubation buffer to a final activity concentration of 0.2 MBq mL^−1 and protocol was followed as described above. Subsequently, the slides were exposed to a phosphor imager plate. After scanning at high sensitivity and a 12.5 µm resolution with a CR35 Bio image plate scanner (Raytest Isotopenmessgeräte GmbH, Straubenhardt, Germany). The analyses of the autoradiographic images were performed with the AIDA 5.1 software (Elysia-Raytest, Angleur, Belgium) resulting in a resolution of 12.617 pixel × 12.616 pixel per µm^2 (1 voxel = 1592 µm^3 ≙ 1.59 10^–3 µg wet tissue) and inhibition curves were created with GraphPad Prism 9.5.1 (GraphPad Inc., La Jolla, CA).
The KD values were calculated with GraphPad Prism according to the modified Cheng-Prusoff method for homologous competitive binding studies, where the KD = Ki = IC50—[radioligand] and the Bmax = specific binding / [radioligand] / ((KD + [radioligand])) (Motulsky and Neubig [2000]), assuming a total protein content of 8.2% (1.3 10^–4 µg protein per voxel) in the spleen (Zaia et al. [2000]) or by determining the protein concentration of the cell membrane lysates using a BCA assay (Thermo Scientific, Braunschweig, Germany). The fractional occupancy defined as occupied binding sites per total binding sites is used to describe the binding fraction specifically bound to CB2R compared to unspecific binding, where [L] is the concentration of the ligand at the start of incubation.

hCB2R(D80N) = hCB2R(D80N) (Homo sapiens, UniProt P34972, D80N)
Chain of hCB2R(D80N) (P34972 whole entry D80N): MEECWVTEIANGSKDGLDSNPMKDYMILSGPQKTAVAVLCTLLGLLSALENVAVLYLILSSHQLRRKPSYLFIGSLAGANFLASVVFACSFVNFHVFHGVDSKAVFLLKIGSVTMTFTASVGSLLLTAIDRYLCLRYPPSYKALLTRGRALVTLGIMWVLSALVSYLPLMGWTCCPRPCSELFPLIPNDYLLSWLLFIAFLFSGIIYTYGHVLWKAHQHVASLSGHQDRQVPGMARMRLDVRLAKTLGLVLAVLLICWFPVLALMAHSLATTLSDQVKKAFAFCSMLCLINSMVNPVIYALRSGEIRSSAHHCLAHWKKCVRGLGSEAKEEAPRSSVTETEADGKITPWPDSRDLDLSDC

[2] = format: in vitro ADME; conditions: Wistar, rat
Method: From the wildtype rats used for in vivo metabolism studies a hematocrit content of 0.56 ± 0.04 (n = 11) was determined by a 5 min centrifugation of 50 µl blood in a hematocrit centrifuge at 500 g. The free plasma fraction (fp) of [^18F]JHU94620-d8 was determined gravimetrically by ultrafiltration of 100 µl rat plasma samples incubated for 5, 15, 30 and 60 min at 37 °C for 20 min at 14,000 g utilizing Nanosep® centrifugal filters (10 kDa, Pall Laboratory, USA). The brain PET images were co-registered to the PMOD integrated Px Rat (W. Schiffer) T2 MR template and the brain stem, cerebellum, left cortex and left midbrain region from the corresponding brain atlas were used for the determination of the regional TACs. Due to high spillover signals from the hCB2R(D80N) expressing region not all provided atlas regions could be evaluated. Subsequently, the total tissue distribution (VT) was estimated by 2-tissue compartment modelling. For correction of the TACs, an averaged image-derived input function (pIDIF, plasma-to-whole blood ratio corrected), determined in biodistribution studies and the parent fraction derived from metabolism studies in Wistar rats (Watabe fit) and pIDIF (3-exponential fit) were integrated into the modelling process. The binding potential was estimated by a simplified reference tissue modelling (SRTM) using the cerebellar region as reference. […]

CB2R [3] = target: T2, CB2R (Mus musculus, UniProt P47936); experiment: Quantitative autoradiography, mouse spleen cryosections; format: binding
T2 construct: from tissue; host or cells: mouse spleen cryosections
T2 sequence (P47936 whole entry): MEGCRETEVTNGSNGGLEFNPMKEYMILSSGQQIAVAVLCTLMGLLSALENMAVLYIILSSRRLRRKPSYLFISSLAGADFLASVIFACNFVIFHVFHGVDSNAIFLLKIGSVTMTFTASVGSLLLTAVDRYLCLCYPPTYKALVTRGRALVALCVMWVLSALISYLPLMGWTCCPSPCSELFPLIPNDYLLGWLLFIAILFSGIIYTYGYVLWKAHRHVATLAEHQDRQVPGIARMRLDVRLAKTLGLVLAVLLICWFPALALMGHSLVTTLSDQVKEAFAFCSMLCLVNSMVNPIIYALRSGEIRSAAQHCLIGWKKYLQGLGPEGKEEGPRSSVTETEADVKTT
Method: as §1, with “CA). […]” for “CA).”

[4] = female, Wistar, rat, in vivo, 60 min

[2H]C([2H])([18F])C([2H])([2H])C([2H])([2H])C([2H])([2H])n1c(C)c(C)s/c1=N\C(=O)C1C(C)(C)C1(C)C [[^18F]JHU94620-d8]
Kd (CB2R [1]; KD values determined by autoradiography, rat and mouse spleen (range over both species)): 0.74 to 1.98 nM
Kd (CB2R [1]; KD, rat spleen cryosection, homologous displacement autoradiography, n = 3): 0.74 nM
specific binding to CB2R (CB2R [1]; rat spleen cryosections, blocking with 10 µM GW405833 or self-blocking): 48 ± 6% and 48%
Bmax (CB2R [1]; spleen of rats): 0.08 pmol mg^−1 protein
BPND in the hCB2R(D80N) region (hCB2R(D80N); SRTM, cerebellar region as reference): 26
reduction of AUC20-60min when normalized to the cerebellum (hCB2R(D80N); after injection of GW405833, compared to the control group): 61%
TAC peak, potential reference regions (contralateral and cerebellum) (hCB2R(D80N); female, Wistar, rat, in vivo): about 3 SUVmean
VT in the brain region bearing the hCB2R(D80N) overexpression (hCB2R(D80N); female, Wistar, rat, in vivo): 320 ± 135 mL ccm^−1
VT in the other investigated brain regions (hCB2R(D80N); female, Wistar, rat, in vivo): 5.9-13.8 mL ccm^−1
SUVmean in the cerebellar region at 60 min p.i. (hCB2R(D80N); [4]): 0.16 ± 0.03 SUVmean
SUVmean in the contralateral region at 60 min p.i. (hCB2R(D80N); [4]): 0.8 ± 0.3 SUVmean
AUC20-60min (CI95%), hCB2R D80N-to-Cerebellum (hCB2R(D80N); human, in vivo): 1128 (1058 to 1198) SUVr ∙ min
AUC20-60min (CI95%), hCB2R D80N-to-Contralateral (hCB2R(D80N); human, in vivo): 291 (226 to 355) SUVr ∙ min
AUC, Cerebellum (hCB2R(D80N); human, in vivo): 30 ± 4 SUV ∙ min
AUC, Contralateral (hCB2R(D80N); human, in vivo): 74 ± 16 SUV ∙ min
AUC, hCB2R(D80N) (hCB2R(D80N); human, in vivo): 412 ± 90 SUV ∙ min
AUC20-60min (CI95%), hCB2R D80N-to-Cerebellum (hCB2R(D80N); human, in vivo, iv, 5 mg/kg): 435 (367 to 502) SUVr ∙ min
AUC20-60min (CI95%), hCB2R D80N-to-Contralateral (hCB2R(D80N); human, in vivo, iv, 5 mg/kg): 272 (233 to 311) SUVr ∙ min
free plasma fraction (fp) [2]: 0.3 ± 0.1
Kd (CB2R [3]): 1.98 nM
specific binding to CB2R (CB2R [3]; mouse spleen cryosections, blocking with 10 µM GW405833 or self-blocking): 40 ± 18%
Bmax (CB2R [3]; spleen of mice): 0.08 pmol mg^−1 protein
